Laboratory results taken from PMC2248166, “Quantitative peptide binding motifs for 19 human and mouse MHC class I molecules derived using positional scanning combinatorial peptide libraries” (Immunome Research, 2008).

Columns and labels:
Assay type in all cases: binding
HLA A*3001 = HLA A*3001 (Homo sapiens, UniProt P04439, D140H/D185E/E176W/F33S/G80R/H175R/K168Q/R138E/R41S); assay: biochemical
HLA A*3201 = HLA A*3201 (Homo sapiens, UniProt P04439, A270S/D101S/D185E/E176V/E277Q/F133L/G103R/G107R/G231S/H175R/I121M/I218V/I322F/K168Q/L105A/L300P/L318F/M331R/P208A/P217A/Q94H/R106L/R138Q/S129P/T104I/T323A/T345S/V100E/V321M/V358M); assay: biochemical
HLA A*6802 = HLA A*6802 (Homo sapiens, UniProt P04439, A269V/D140Y/D185E/E176V/E277Q/E87N/F33Y/G231S/I121R/I166T/I218V/L180W/L300P/L318F/N151K/P208A/P217A/Q86R/R138H/R169H/S129P/T345S/V36M)
HLA B*0801 = HLA B*0801 (Homo sapiens, UniProt P01889, A93T/A95T/D138N/E176V/E187T/K202T/Q94N/R180D/S35A/V36M/Y33D/Y91F); assay: biochemical
HLA B*1501 = HLA B*1501 (Homo sapiens, UniProt P01889, A329T/A93T/A95T/C349S/D201E/D98Y/E187L/E204Q/E69M/E70A/K202T/N87E/Q94N/R155S/R180W/S121R/S35A/S48A/V306I/V36M/Y140S/Y91S); assay: biochemical
HLA B*1503 = HLA B*1503 (Homo sapiens, UniProt P01889, A329T/A93T/A95T/C349S/D201E/D98Y/E187L/E204Q/K202T/N87E/Q94N/R155S/R180L/S121R/S35A/V306I/V36M/Y140S/Y91S); assay: biochemical
HLA B*3501 = HLA B*3501 (Homo sapiens, UniProt P01889, A329T/A93T/A95T/C349S/D201E/D98Y/E176V/E187L/E204Q/E69T/I218V/K202T/L119I/Q94N/R155S/R180L/S121R/S35A/S48A/T118I/V127L/V306I/V36M/Y140S/Y91F)
HLA B*5101 = HLA B*5101 (Homo sapiens, UniProt P01889, A329T/A93T/A95T/C349S/D138N/D201E/D98Y/E187L/E204Q/E69T/G107R/I218V/K202T/L105A/L119W/N104I/Q94N/R106L/R155S/R180L/S101N/S121T/S35A/S48A/V306I/V36M/Y195H/Y91F)
HLA B*5301 = HLA B*5301 (Homo sapiens, UniProt P01889, A329T/A93T/A95T/C349S/D201E/D98Y/E176V/E187L/E204Q/E69T/G107R/I218V/K202T/L105A/L119I/N104I/Q94N/R106L/R155S/R180L/S101N/S121R/S35A/S48A/T118I/V127L/V306I/V36M/Y140S/Y91F)
HLA B*5401 = HLA B*5401 (Homo sapiens, UniProt P01889, A329T/C349S/D138N/D201E/E176V/E187T/E204Q/E69G/I76V/K202T/L119W/R155S/R180L/S121T/S35A/S48A/V127L/V306I/V36M/Y140L)
HLA B*5801 = HLA B*5801 (Homo sapiens, UniProt P01889, A329T/C349S/D201E/D98Y/E176V/E187L/E204Q/E69T/G107R/I218V/I90N/K202T/L105A/L119I/N104I/N87E/Q89R/Q94S/R106L/R155S/R180L/R86G/S101N/S121R/S35A/S48A/T118I/V127L/V306I/V36M/Y140S/Y91M)
HLA B*5802 = HLA B*5802 (Homo sapiens, UniProt P01889, A329T/C349S/D201E/D98Y/E176V/E187L/E204Q/E69T/G107R/I218V/I90N/K202T/L105A/N104I/N87E/Q89R/Q94S/R106L/R155S/R180L/R86G/S101N/S121W/S35A/S48A/V127L/V306I/V36M/Y140S/Y91M)
H-2 D^b = H-2 D^b (Mus musculus, UniProt P01899)
H-2 D^d = H-2 D^d (Mus musculus, UniProt P01900)
H-2 K^d = H-2 K^d (Mus musculus, UniProt P01902)
H-2 K^k = H-2 K^k (Mus musculus, UniProt P04223)
Sequence of H-2 K^k (P01887 21-119): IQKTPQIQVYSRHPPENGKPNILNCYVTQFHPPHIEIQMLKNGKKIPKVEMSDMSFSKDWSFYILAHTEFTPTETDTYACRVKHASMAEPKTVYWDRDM
Sequence of H-2 K^k (P04223 22-369): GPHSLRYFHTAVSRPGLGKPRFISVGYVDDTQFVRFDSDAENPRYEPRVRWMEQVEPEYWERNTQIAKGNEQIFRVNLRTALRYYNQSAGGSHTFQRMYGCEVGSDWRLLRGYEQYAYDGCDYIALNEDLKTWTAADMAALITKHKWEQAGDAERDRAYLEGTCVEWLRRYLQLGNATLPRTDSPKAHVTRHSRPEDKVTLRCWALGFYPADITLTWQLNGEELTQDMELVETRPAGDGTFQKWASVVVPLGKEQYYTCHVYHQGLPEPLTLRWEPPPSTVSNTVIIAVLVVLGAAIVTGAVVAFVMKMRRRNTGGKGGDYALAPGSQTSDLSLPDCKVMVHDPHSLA

Sequence of H-2 D^b (P01887 21-119): as the sequence (P01887 21-119) above
Sequence of H-2 D^b (P01899 25-362): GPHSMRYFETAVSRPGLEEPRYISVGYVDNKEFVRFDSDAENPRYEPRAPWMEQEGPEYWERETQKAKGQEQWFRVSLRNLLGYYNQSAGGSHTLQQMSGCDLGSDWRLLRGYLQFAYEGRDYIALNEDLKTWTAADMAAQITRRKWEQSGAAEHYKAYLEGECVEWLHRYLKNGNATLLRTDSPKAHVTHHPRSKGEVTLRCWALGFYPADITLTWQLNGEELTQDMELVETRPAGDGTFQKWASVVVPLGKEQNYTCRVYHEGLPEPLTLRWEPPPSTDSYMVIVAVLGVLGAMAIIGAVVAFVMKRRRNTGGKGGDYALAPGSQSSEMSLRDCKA
Sequence of H-2 K^d (P01887 21-119): as the sequence (P01887 21-119) above
Sequence of H-2 K^d (P01902 22-368): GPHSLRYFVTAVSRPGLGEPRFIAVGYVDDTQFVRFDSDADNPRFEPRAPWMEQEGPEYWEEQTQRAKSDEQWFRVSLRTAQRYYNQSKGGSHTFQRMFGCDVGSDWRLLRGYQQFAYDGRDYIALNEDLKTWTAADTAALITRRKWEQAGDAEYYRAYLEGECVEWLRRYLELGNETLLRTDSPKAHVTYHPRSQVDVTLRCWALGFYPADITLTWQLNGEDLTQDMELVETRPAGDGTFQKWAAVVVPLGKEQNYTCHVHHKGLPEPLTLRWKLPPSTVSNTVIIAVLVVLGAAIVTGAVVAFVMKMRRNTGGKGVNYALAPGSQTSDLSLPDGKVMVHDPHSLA
Sequence of H-2 D^d (P01900 whole entry, looked up): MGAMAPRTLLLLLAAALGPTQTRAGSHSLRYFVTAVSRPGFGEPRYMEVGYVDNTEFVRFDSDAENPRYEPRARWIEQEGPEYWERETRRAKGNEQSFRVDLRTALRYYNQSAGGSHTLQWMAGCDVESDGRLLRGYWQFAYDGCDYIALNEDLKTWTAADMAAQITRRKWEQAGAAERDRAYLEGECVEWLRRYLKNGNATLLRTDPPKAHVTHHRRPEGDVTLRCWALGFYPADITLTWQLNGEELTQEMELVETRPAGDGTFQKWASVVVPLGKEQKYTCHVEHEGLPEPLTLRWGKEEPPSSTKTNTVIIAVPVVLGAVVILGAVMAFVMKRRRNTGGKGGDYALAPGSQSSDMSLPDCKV

Row | Sequence | Normalized average relative binding affinity(ARB) (HLA A*3001) | Normalized average relative binding affinity(ARB) (HLA A*3201) | Normalized average relative binding affinity(ARB) (HLA A*6802) | Normalized average relative binding affinity(ARB) (HLA B*0801) | Normalized average relative binding affinity(ARB) (HLA B*1501) | Normalized average relative binding affinity(ARB) (HLA B*1503) | Normalized average relative binding affinity(ARB) (HLA B*3501) | Normalized average relative binding affinity(ARB) (HLA B*5101) | Normalized average relative binding affinity(ARB) (HLA B*5301) | Normalized average relative binding affinity(ARB) (HLA B*5401) | Normalized average relative binding affinity(ARB) (HLA B*5801) | Normalized average relative binding affinity(ARB) (HLA B*5802) | Normalized average relative binding affinity(ARB) (H-2 D^b) | Normalized average relative binding affinity(ARB) (H-2 D^d) | Normalized average relative binding affinity(ARB) (H-2 K^d) | Normalized average relative binding affinity(ARB) (H-2 K^k)
1 | XXXXXXXTX [3064.0157] | 0.31 | 0.86 | 0.37 | 0.24 | 0.40 | 0.23 | 0.26 | 0.57 | 0.22 | 0.20 | 0.29 | 0.66 | 0.24 | 0.58 | 0.52 | 0.28
2 | XXXXXPXXX [3064.0113] | 0.19 | 0.27 | 0.57 | 0.039 | 0.11 | 0.47 | 0.14 | 0.067 | 0.15 | 0.15 | 0.20 | 0.39 | 0.23 | 0.094 | 0.15 | 0.38
3 | XXXXGXXXX [3064.0086] | 0.29 | 0.31 | 1.0 | 0.029 | 0.77 | 0.65 | 0.35 | 0.31 | 0.32 | 0.19 | 0.38 | 0.37 | 0.064 | 0.11 | 0.30 | 0.17
4 | XXXXXXQXX [3064.0134] | 0.29 | 0.33 | 0.45 | 0.79 | 0.51 | 0.95 | 0.36 | 0.50 | 1.0 | 1.0 | 0.23 | 0.22 | 0.84 | 0.057 | 0.25 | 0.016
5 | XXXXXXXVX [3064.0158] | 0.19 | 0.62 | 0.17 | 0.48 | 0.38 | 0.34 | 0.37 | 0.32 | 0.51 | 0.10 | 0.20 | 0.26 | 0.35 | 0.52 | 0.37 | 0.38
6 | XXXXSXXXX [3064.0096] | 1.0 | 0.20 | 0.34 | 0.065 | 0.71 | 0.47 | 0.27 | 0.35 | 0.16 | 0.18 | 0.31 | 0.063 | 0.079 | 0.21 | 1.0 | 0.18
